Data on nine substances can be found in publication PMC10122656, “Siglec-6 mediates the uptake of extracellular vesicles through a noncanonical glycolipid binding pocket” (Nature Communications, 2023).

Values joined by “and” are separate entries in the source; they are usually repeats but may differ in a detail not shown here. Equal values may be shown once.

What all share (assay): Cell assay (liposome/EV binding, flow cytometry)
Common to all, as to type: cell-based
For orientation: A flow cytometer gives signals particle by particle.

One test deals with T1, Siglec-4 WT CHO cells (Homo sapiens, UniProt P20916).
T1 construct: expressed in transfected cells
T1 sequence (P20916 20-626): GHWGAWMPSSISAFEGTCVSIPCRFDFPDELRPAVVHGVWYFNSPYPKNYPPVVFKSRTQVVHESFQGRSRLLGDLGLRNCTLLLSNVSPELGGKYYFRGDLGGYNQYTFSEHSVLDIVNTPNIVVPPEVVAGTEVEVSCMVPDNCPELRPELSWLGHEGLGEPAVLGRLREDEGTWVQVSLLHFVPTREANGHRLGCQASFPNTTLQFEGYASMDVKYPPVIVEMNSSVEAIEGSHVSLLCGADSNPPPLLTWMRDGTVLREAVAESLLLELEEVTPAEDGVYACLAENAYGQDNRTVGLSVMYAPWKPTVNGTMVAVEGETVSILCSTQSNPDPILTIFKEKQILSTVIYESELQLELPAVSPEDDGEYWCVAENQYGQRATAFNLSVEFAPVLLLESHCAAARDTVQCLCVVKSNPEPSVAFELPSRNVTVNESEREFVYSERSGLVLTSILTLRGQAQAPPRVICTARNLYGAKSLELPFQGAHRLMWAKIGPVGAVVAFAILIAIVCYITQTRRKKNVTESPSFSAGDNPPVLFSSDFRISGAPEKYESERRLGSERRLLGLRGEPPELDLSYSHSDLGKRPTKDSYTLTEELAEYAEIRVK
The note with it: Sig-4 WT†; † after treatment of cells with neuraminidase; 3 mol% ganglioside liposomes; replicates. The procedure: (§1) Stock lipids (DSPC, Cholesterol, PEG45–DSPE) solutions were prepared by solvating the lipids in chloroform. An appropriate volume of each lipid solution was transferred to a glass test tube to reach the desired mol% of the component. The chloroform was then removed under N2 gas to yield a lipid thin film. Once dry, 100 µL of DMSO was added to the lipid-containing test tube and then the functional lipids (ganglioside, AF647–PEG45–DSPE, Siglec ligand–PEG45–DSPE, pHrodo–PEG45–DSPE, NGL) was added from their respect DMSO stock solution. The lipid mixture was then stored at −80 °C until completely frozen at which point excess DMSO was removed via lyophilization. Dry lipids were then stored at −80 °C until they were extruded. Lipid suppliers can be found in Supplementary Table 4.
(§2) Dry lipids were then hydrated in 1 mL of PBS. The lipids were then sonicated in a bath sonicator in a cycle of 1 min on, 5 min off for a total of five cycles. Liposomes were then extruded using an Avanti mini extruder first using an 800 nm filter and then a 100 nm filter yielding liposomes that were 130 ± 35 nm (Supplementary Table 5) measured using a Malvern Panalytical Zetasizer Nano S. Liposomes were stored at 4 °C.
(§3) 200,000 cells/well were plated into a 96-well U-bottom microplate and centrifuged at 300 × g for 5 min. The cells were then resuspended in 50 µL of 50 µM liposome/50 µg/mL (protein concentration) of EV solution in DMEM F12 5% FBS and incubated at 37 °C for 30 min. Excess liposomes were then removed via centrifuged at 300 × g for 5 min followed by washing the cells with FACS solution. The cells were then resuspended in (1:250 V/V) anti-Siglec-flow buffer (1% V/V FBS, 500 µM, EDTA Hank’s Balanced Salt Solution pH 7.4), solution and left to rest on ice for 30 min. The cells were then centrifuged again at 300 × g for 5 min and the cells were resuspended in FACS buffer solution and were then ready for analysis by flow cytometry. Information regarding antibody clone, catalog number supplier, label isotype, and dilution can be found in Supplementary Table 6. The Siglec-positive cells were gated on for liposome-binding analysis (Supplementary Fig. 1b).
(§4) Flow cytometry measurements were collected on a 5-laser Fortessa X-20 (BD Bioscience). All the resulting data were analyzed using FlowJo (10.5.3) software (BD Biosciences).
(§5) Cells were harvested and resuspended in complete media with either Neuraminidase A or S. The cells were then placed in a 37 °C shaking incubator for 1 h. The cells were then washed with complete media and then the liposome binding assay was performed as described above.

Another test has as its target T2, Siglec-9 WT CHO cells (Homo sapiens, UniProt Q9Y336).
T2 construct: expressed in transfected cells
The settings on record: for log10(MFI AF647) of GLL relative to log10(MFI AF647) of the same GLL against UT CHO cells (Fig. 2a): Sig-9 WT†, † after treatment of cells with neuraminidase, 3 mol% ganglioside liposomes, replicates. The method, then:
as §1, §2, §3, §4, §5

The next test has as its target T3, Siglec-5 WT CHO cells (Homo sapiens, UniProt O15389).
T3 construct: expressed in transfected cells
T3 sequence (O15389 17-551): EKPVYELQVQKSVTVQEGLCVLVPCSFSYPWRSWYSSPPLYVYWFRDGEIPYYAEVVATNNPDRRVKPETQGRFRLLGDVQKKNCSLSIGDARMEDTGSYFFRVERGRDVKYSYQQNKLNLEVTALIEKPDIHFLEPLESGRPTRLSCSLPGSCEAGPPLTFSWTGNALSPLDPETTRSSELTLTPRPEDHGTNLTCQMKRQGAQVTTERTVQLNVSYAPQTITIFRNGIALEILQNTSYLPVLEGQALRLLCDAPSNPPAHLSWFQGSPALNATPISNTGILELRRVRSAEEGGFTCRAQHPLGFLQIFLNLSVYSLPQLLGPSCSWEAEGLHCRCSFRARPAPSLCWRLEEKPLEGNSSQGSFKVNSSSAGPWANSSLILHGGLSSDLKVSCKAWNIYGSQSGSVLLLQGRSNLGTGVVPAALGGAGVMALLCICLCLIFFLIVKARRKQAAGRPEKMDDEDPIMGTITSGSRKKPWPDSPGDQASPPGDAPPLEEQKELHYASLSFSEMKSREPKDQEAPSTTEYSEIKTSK
The note with it: for log10(MFI AF647) of GLL relative to log10(MFI AF647) of the same GLL against UT CHO cells (Fig. 2a): Sig-5 WT†, † after treatment of cells with neuraminidase, 3 mol% ganglioside liposomes, replicates; for GLL binding to Siglec-5 (in words): cell assay, optimized liposomal formulation. The procedure:
as §1, §2, §3, §4, §5

The target of another test is T4, Siglec-9 R120A CHO cells (Homo sapiens, UniProt Q9Y336, R120A).
T4 construct: expressed in transfected cells
T4 sequence (Q9Y336 18-463 R120A): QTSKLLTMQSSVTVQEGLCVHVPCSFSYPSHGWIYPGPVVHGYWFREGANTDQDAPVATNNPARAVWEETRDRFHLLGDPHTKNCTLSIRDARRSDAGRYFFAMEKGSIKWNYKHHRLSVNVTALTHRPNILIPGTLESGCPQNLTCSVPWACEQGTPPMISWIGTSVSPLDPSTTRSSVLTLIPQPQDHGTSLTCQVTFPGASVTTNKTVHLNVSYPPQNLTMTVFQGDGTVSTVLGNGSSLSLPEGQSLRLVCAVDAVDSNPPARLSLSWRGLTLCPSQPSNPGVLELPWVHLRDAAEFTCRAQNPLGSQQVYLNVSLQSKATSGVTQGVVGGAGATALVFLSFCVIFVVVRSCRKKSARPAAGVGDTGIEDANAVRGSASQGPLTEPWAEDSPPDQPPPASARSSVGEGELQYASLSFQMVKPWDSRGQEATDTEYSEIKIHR
The settings on record: Sig-9 R120A†; † after treatment of cells with neuraminidase; 3 mol% ganglioside liposomes; replicates. The procedure: as §1, §2, §3, §4, §5

The target in another test is T5, Siglec-7 WT CHO cells (Homo sapiens, UniProt Q9Y286).
T5 construct: expressed in transfected cells
T5 sequence (Q9Y286 19-467): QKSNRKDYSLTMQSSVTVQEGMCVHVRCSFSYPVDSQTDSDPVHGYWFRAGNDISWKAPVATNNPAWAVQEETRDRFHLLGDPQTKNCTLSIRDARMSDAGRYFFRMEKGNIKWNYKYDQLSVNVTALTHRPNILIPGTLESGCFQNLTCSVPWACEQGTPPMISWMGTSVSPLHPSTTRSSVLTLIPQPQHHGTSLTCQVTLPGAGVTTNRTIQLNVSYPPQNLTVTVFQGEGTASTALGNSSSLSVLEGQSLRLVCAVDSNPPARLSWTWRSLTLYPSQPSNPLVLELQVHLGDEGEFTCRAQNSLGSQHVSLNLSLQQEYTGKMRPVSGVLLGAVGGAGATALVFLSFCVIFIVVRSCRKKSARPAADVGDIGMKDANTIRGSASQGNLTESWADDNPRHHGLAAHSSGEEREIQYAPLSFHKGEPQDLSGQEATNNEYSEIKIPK
The settings on record: for log10(MFI AF647) of GLL relative to log10(MFI AF647) of the same GLL against UT CHO cells (Fig. 2a): Sig-7 WT†, † after treatment of cells with neuraminidase, 3 mol% ganglioside liposomes, replicates. The method, then: as §1, §2, §3, §4, §5

T2 sequence (Q9Y336 18-463): as the sequence (Q9Y336 18-463 R120A) above, with A103R counted along it

As for GD3, the “log10(MFI AF647) of GLL relative to log10(MFI AF647) of the same GLL against UT CHO cells (Fig. 2a)” value at Siglec-4 WT CHO cells was 0.51 (2×) and 0.52 and 0.5; at Siglec-9 WT CHO cells it was 0.22 and 0.21 and 0.23; at Siglec-5 WT CHO cells, 0.28 and 0.26 and 0.19; at Siglec-9 R120A CHO cells, 0.21 and 0.15 (2×) and 0.19; at Siglec-7 WT CHO cells it was 1.01 and 0.98 and 1.03. Also, on Siglec-7 WT CHO cells (ganglioside titrated in GLLs, cells treated with neuraminidase S), the “GLL binding to Siglec-7 with increasing ganglioside content (in words)” value was “decreased above an optimal ganglioside content”.

Consider GD1b, for which the “log10(MFI AF647) of GLL relative to log10(MFI AF647) of the same GLL against UT CHO cells (Fig. 2a)” value at Siglec-4 WT CHO cells was 0.9 and 0.93 and 0.96 and 0.92; at Siglec-9 WT CHO cells, 0.27 (2×) and 0.29; at Siglec-5 WT CHO cells, 0.26 and 0.29 and 0.23; at Siglec-9 R120A CHO cells it was 0.12 (2×) and 0.14 (2×); at Siglec-7 WT CHO cells it was 0 and -0.03 and -0.01. The “GLL binding to Siglec-5 (in words)” value on Siglec-5 WT CHO cells is “novel interactions were observed”.

As to GM3, the “log10(MFI AF647) of GLL relative to log10(MFI AF647) of the same GLL against UT CHO cells (Fig. 2a)” value was -0.11 (2×) and -0.14 and -0.2 on Siglec-4 WT CHO cells; -0.03 and -0.01 (2×) at Siglec-9 WT CHO cells; -0.05 (2×) and -0.08 on Siglec-5 WT CHO cells; -0.21 and -0.17 and -0.15 and -0.13 on Siglec-9 R120A CHO cells; -0.16 and -0.14 and -0.13 at Siglec-7 WT CHO cells.

On to GT1b, for which the “log10(MFI AF647) of GLL relative to log10(MFI AF647) of the same GLL against UT CHO cells (Fig. 2a)” value at Siglec-4 WT CHO cells is 1.15 and 1 and 1.11 and 1.1; on Siglec-9 WT CHO cells, 0.55 and 0.46 and 0.54; at Siglec-5 WT CHO cells it was 0.58 and 0.64 and 0.55; on Siglec-9 R120A CHO cells it was 0.16 (2×) and 0.11 and 0.15; on Siglec-7 WT CHO cells, 0.54 and 0.42 and 0.56.

For the substance GM1, the “log10(MFI AF647) of GLL relative to log10(MFI AF647) of the same GLL against UT CHO cells (Fig. 2a)” value on Siglec-4 WT CHO cells is 0.57 (2×) and 0.53 and 0.49; on Siglec-9 WT CHO cells, 0.3 and 0.31 (2×); at Siglec-5 WT CHO cells, 0.35 (2×) and 0.26; on Siglec-9 R120A CHO cells, 0.14 and 0.1 (2×) and 0.16; at Siglec-7 WT CHO cells, -0.1 and -0.11 and -0.08. Also, at Siglec-5 WT CHO cells, the “GLL binding to Siglec-5 (in words)” value was “novel interactions were observed”.

Turning to GQ1b, the “log10(MFI AF647) of GLL relative to log10(MFI AF647) of the same GLL against UT CHO cells (Fig. 2a)” value is 0.13 and 0.12 and 0.1 and 0.11 on Siglec-4 WT CHO cells; 0.2 and 0.23 and 0.25 at Siglec-9 WT CHO cells; 0.86 (2×) and 0.94 on Siglec-5 WT CHO cells; 0.15 and 0.12 and 0.13 and 0.1 at Siglec-9 R120A CHO cells; 1.41 and 1.39 and 1.38 on Siglec-7 WT CHO cells.

Turning to GD1a, the “log10(MFI AF647) of GLL relative to log10(MFI AF647) of the same GLL against UT CHO cells (Fig. 2a)” value at Siglec-4 WT CHO cells is 1.02 and 0.9 and 0.95 and 0.88; on Siglec-9 WT CHO cells, 0.29 (2×) and 0.32; at Siglec-5 WT CHO cells, 0.3 and 0.33 and 0.29; at Siglec-9 R120A CHO cells it was 0.17 and 0.16 (3×); on Siglec-7 WT CHO cells, 0.05 and 0.02 and 0.03.

With GM4, the “log10(MFI AF647) of GLL relative to log10(MFI AF647) of the same GLL against UT CHO cells (Fig. 2a)” value at Siglec-4 WT CHO cells was -0.3 and -0.1 and -0.11 and -0.09; at Siglec-9 WT CHO cells it was 0.19 (2×) and 0.21; on Siglec-5 WT CHO cells it was 0.08 (2×) and 0.05; at Siglec-9 R120A CHO cells, 0.05 and 0.07 and 0.08 (2×); on Siglec-7 WT CHO cells, -0.07 and -0.06 and -0.04.

GM2: the “log10(MFI AF647) of GLL relative to log10(MFI AF647) of the same GLL against UT CHO cells (Fig. 2a)” value at Siglec-4 WT CHO cells is 0.08 (2×) and -0.03 and -0.04; at Siglec-9 WT CHO cells, 0.28 and 0.29 and 0.26; on Siglec-5 WT CHO cells it was 0.12 and 0.11 and 0.15; at Siglec-9 R120A CHO cells, 0.15 and 0.16 and 0.17 (2×); on Siglec-7 WT CHO cells it was -0.02 and 0 (2×). For the same substance, the “GLL binding to Siglec-9 (in words)” value at Siglec-9 WT CHO cells (cell assay, optimized liposomal formulation) is reported as “novel interactions were observed”.
